In US7989458B2, “Pyrimidine derivatives as alk-5 inhibitors” (Novartis AG, priority 2006, dated 2011):

B1: Follistatin: an antagonist of activin signalling (protein, UniProt P19883 30-344, looked up)
Follistatin: GNCWLRQAKNGRCQVLYKTELSKEECCSTGRLSTSWTEEDVNDNTLFKWMIFNGGAPNCIPCKETCENVDCGPGKKCRMNKKNKPRCVCAPDCSNITWKGPVCGLDGKTYRNECALLKARCKEQPELEVQYQGRCKKTCRDVFCPGSSTCVVDQTNNAYCVTCNRICPEPASSEQYLCGNDGVTYSSACHLRKATCLLGRSIGLAYEGKCIKAKSCEDIQCTGGKKCLWDFKVGRGRCSLCDELCPDSKSDEPVCASDNATYASECAMKEAACSSGVLLEVKHSGSCNSISEDTEEEEEDEDQDYSFPISSILEW

How the values were obtained:
[1] = target: T1, human ALK5 (ALK5 T204D kinase domain) (Homo sapiens, UniProt P36897, T204D); assay: ALK5 kinase activity, [33P] phosphate incorporation into casein; type: biochemical; details: casein substrate, 1 μM unlabelled ATP
T1 construct: The kinase domain of human ALK5 (amino acids 200-503); made in house; host or cells: insect cells (baculovirus)
T1 sequence (P36897 200-503 T204D): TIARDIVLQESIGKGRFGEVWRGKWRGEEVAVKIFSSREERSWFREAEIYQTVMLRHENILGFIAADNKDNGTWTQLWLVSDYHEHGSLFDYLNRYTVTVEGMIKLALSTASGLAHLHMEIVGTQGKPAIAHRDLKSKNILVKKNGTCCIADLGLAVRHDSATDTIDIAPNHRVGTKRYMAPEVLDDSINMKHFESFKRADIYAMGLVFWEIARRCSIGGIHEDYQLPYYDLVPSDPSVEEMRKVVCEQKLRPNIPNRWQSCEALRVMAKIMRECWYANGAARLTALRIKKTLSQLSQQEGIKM
Description: The kinase activity of ALK5 is assessed by measuring radiolabelled phosphate [33P] incorporation in to the generic substrate, casein. The kinase domain of human ALK5 (amino acids 200-503) is fused to an N-terminal histidine tag. The kinase activity of ALK5 is rendered constitutive via point mutation at amino acid 204 (threonine to aspartate modification, ALK5 T204D) and the kinase construct is engineered to be expressed from a baculovirus expression construct in insect cells. The purified, recombinantly-expressed histidine-tagged ALK5 T204D protein is dissolved at 5.4 mg/ml in 50 mM Tris-HCl pH 8.0, 150 mM NaCl, 5 mM DTT. ALK5 T204D is dissolved to 2.5 μg/ml in assay buffer (Assay buffer: 20 mM Tris-HCl pH 7.4, 10 mM MgCl2, 2 mM MnCl2) on the day of use.
Test compounds and reference compounds are dissolved in assay buffer without DTT containing 5% (v/v) DMSO. Stock solutions of test and reference compounds are diluted in assay buffer with DTT (1.25 mM) containing 4.5% (v/v) DMSO. 10 μl of test or reference compound are added to the appropriate wells of 96 well U-bottomed plate. Total enzyme activity is determined by measuring ALK5 T204D activity in the absence of ALK5 kinase inhibitor reference compounds. Non-specific binding (NSB) is determined by measuring the activity of ALK5 T204D in the presence of ALK5 kinase inhibitor reference compounds. 10 μl of dephosphorylated casein stock solution (dephosphorylated casein is dissolved in ddH2O at 20 mg/ml) is added per well (200 μg/well final assay concentration). 20 μl of ALK5 T204D (2.5 μg/ml solution) is added per well (50 ng/well final assay concentration). The plates are left to incubate at room temperature for 10 minutes.
10 μl of ATP mix is added to the well to initiate the reaction (0.66 nM [^33P]ATP/1 μM unlabelled ATP/well final assay concentration). The ATP mix is prepared as follows, unlabelled ATP (3 mM) is dissolved in ddH2O and pH adjusted to 7.4. The stock concentration of [^33P]ATP is 10 μCi/μl. The appropriate volume of [^33P]ATP is added to unlabelled ATP solution such that the final assay concentration per well is 0.1 μCi. Following addition of the ATP mix, the plates are incubated at room temperature for 50 minutes. The kinase reaction is terminated by the addition of 50 μL Stop Buffer (20 mM Tris-HCl pH 7.4, 10 mM EDTA).
75 μl/well from the reaction plate is transferred to a Multiscreen-IP plate (MultiScreen-IP plates are prepared by added 50 μL of 70% (v/v) ethanol per well and incubated for 5 minutes at room temperature. The ethanol is removed by aspiration via a MultiScreen HTS Vacuum Manifold unit (Millipore, Cat no: MSVMHT500). The plates are washed twice by adding 200 μl/well ddH2O). The MultiScreen-IP plate is incubated at room temperature for 30 minutes to allowing binding of casein to the plate. The MultiScreen-IP plates are washed three times by adding 200 μl/well 100 mM phosphoric acid solution and the gasket is carefully removed from the back of the MultiScreen-IP plate and the plate dried in the oven for 30 minutes. The MultiScreen-IP plate is backsealed, 50 μL of Microscint™20 is added, then the plates are topsealed and radiolabelled casein detected and quantified on a TopCount™ plate-reader using the ^33P scintillation protocol.

[2] = tested on: dimethylnitrosamine induced liver fibrosis; details: rat, cited from earlier work
bleomycin-treated rats = details: cited from earlier work
[3] = given therapeutically, 3 weeks treatment

Row | Molecule | IC50 [1] [nM] | other results
1 | Oc1ccc2[nH]cc(CCNc3cc(-c4cccnc4)nc(-c4ccccn4)n3)c2c1 [Example 1.29, 3-[2-(6-Pyridin-3-yl-2-pyridin-2-yl-pyrimidin-4-ylamino)-ethyl]-1H-indol-5-ol] | 370 | –
2 | c1ccc(-c2nc(NCc3c[nH]c4ccccc34)cc(-c3cccnc3)n2)nc1 [Example 1.23, (1H-Indol-3-ylmethyl)-(6-pyridin-3-yl-2-pyridin-2-yl-pyrimidin-4-yl)-amine] | 570 | –
3 | Oc1ccccc1CCNc1cc(-c2cccnc2)nc(-c2ccccn2)n1 [Example 1.62, 2-[2-(6-Pyridin-3-yl-2-pyridin-2-yl-pyrimidin-4-ylamino)-ethyl]-phenol] | 150 | –
4 | Fc1ccc2[nH]cc(CCNc3cc(-c4cccnc4)nc(-c4ccccn4)n3)c2c1 [Example 1.15, [2-(5-Fluoro-1H-indol-3-yl)-ethyl]-(6-pyridin-3-yl-2-pyridin-2-yl-pyrimidin-4-yl)-amine] | 790 | –
5 | CNc1cc(-c2cncc(-c3cccc(OC)c3)c2)nc(-c2cccc(C)n2)n1 [Example 2.69, [6-[5-(3-Methoxy-phenyl)-pyridin-3-yl]-2-(6-methyl-pyridin-2-yl)-pyrimidin-4-yl]-methyl-amine] | 420 | –
6 | Cc1ccc2c(CCNc3cc(-c4cccnc4)nc(-c4cccc(C)n4)n3)c[nH]c2c1 [Example 1.82, [2-(6-Methyl-1H-indol-3-yl)-ethyl]-[2-(6-methyl-pyridin-2-yl)-6-pyridin-3-yl-pyrimidin-4-yl]-amine] | 100 | –
7 | Cc1cccc(-c2nc(NCCc3c[nH]c4ccccc34)cc(-c3cccnc3)n2)n1 [Example 1.3, [2-(1H-Indol-3-yl)-ethyl]-[2-(6-methyl-pyridin-2-yl)-6-pyridin-3-yl-pyrimidin-4-yl]-amine] | 60 | –
8 | Cc1cccc(-c2nc(NCCc3cccc4[nH]ccc34)cc(-c3cccnc3)n2)n1 [Example 1.6, [2-(1H-Indol-4-yl)-ethyl]-[2-(6-methyl-pyridin-2-yl)-6-pyridin-3-yl-pyrimidin-4-yl]-amine] | 20 | –
9 | COc1cccc(-c2cncc(-c3cc(NCc4cccc(O)c4)nc(-c4ccccn4)n3)c2)c1 [Example 2.17, 3-({6-[5-(3-Methoxy-phenyl)-pyridin-3-yl]-2-pyridin-2-yl-pyrimidin-4-ylamino}-methyl)-phenol] | 80 | –
10 | COc1cccc(-c2cncc(-c3cc(NCc4cccc(O)c4)nc(-c4cccc(C)n4)n3)c2)c1 [Example 2.70, 3-([6-[5-(3-Methoxy-phenyl)-pyridin-3-yl]-2-(6-methyl-pyridin-2-yl)-pyrimidin-4-ylamino]-methyl}-phenol] | 10 | –
11 | c1ccc(-c2nc(NCCc3cccc4[nH]ccc34)cc(-c3cccnc3)n2)nc1 [Example 1.2, [2-(1H-Indol-4-yl)-ethyl]-(6-pyridin-3-yl-2-pyridin-2-yl-pyrimidin-4-yl)-amine] | 30 | –
12 | Cc1cncc(-c2cc(NCCc3c[nH]c4ccccc34)nc(-c3ccccn3)n2)c1 [Example 2.31, [2-(1H-Indol-3-yl)-ethyl]-[6-(5-methyl-pyridin-3-yl)-2-pyridin-2-yl-pyrimidin-4-yl]-amine] | 910 | –
13 | Cc1cccc(-c2nc(NCc3cccc(O)c3)cc(-c3cncc(-c4ccc(F)cc4)c3)n2)n1 [Example 2.71, 3-{[6-[5-(4-Fluoro-phenyl)-pyridin-3-yl]-2-(6-methyl-pyridin-2-yl)-pyrimidin-4-ylamino]-methyl}-phenol] | 40 | –
14 | Cc1cccc(-c2nc(NCCc3cccc(O)c3)cc(-c3cccnc3)n2)n1 [Example 1.48, 3-{2-[2-(6-Methyl-pyridin-2-yl)-6-pyridin-3-yl-pyrimidin-4-ylamino]-ethyl}-phenol] | 80 | –
15 | Fc1cccc2c(CCNc3cc(-c4cccnc4)nc(-c4ccccn4)n3)c[nH]c12 [Example 1.42, [2-(7-Fluoro-1H-indol-3-yl)-ethyl]-(6-pyridin-3-yl-2-pyridin-2-yl-pyrimidin-4-yl)-amine] | 310 | –
16 | c1ccc(-c2nc(NCCc3coc4ccccc34)cc(-c3cccnc3)n2)nc1 [Example 1.77, (2-Benzofuran-3-yl-ethyl)-(6-pyridin-3-yl-2-pyridin-2-yl-pyrimidin-4-yl)-amine] | 180 | –
17 | c1ccc(-c2cc(-c3cn[nH]c3-c3ccccn3)ccn2)cc1 [GW6604] | – | side effects ([2]; during the 3 weeks treatment): no obvious side effects; inhibition of extracellular matrix deposition [2, 3]: 60%; prevention of death rate [2, 3]: 40%
18 | c1ccc(-c2nc(NCc3cccc4[nH]ccc34)cc(-c3cccnc3)n2)nc1 [Example 1.1, (1H-Indol-4-ylmethyl)-(6-pyridin-3-yl-2-pyridin-2-yl-pyrimidin-4-yl)-amine] | 100 | –
19 | COc1cncc(-c2cc(NCc3cccc4[nH]ccc34)nc(-c3cccc(C)n3)n2)c1 [Example 2.2, (1H-Indol-4-ylmethyl)-[6-(5-methoxy-pyridin-3-yl)-2-(6-methyl-pyridin-2-yl)-pyrimidin-4-yl]-amine] | 20 | –
20 | B1 | – | lung fibrosis (bleomycin-treated rats): attenuated lung fibrosis; number of macrophages and neutrophils in bronchoalveolar lavage (bleomycin-treated rats): significantly reduced
